Legend:
[1] = biological target: T1, Dipeptidyl peptidase 2 (Homo sapiens, UniProt Q9UHL4)
[2] = biological target: T2, Dipeptidyl peptidase 4 (Homo sapiens, UniProt P27487)
[3] = biological target: T2, Dipeptidyl peptidase 4; remark: listed apart in the source
[4] = biological target: Dipeptidyl peptidase II and dipeptidyl peptidase IV (DPP2 and DPP4) (Homo sapiens) (UniProt P27487+Q9UHL4); assay: Selectivity index against Dipeptidyl Peptidase IV and Dipeptidyl Peptidase II inhibitory activities; format: protein assay
[5] = biological target: T1, Dipeptidyl peptidase 2; assay: Inhibitory activity against Dipeptidyl Peptidase II

T2 sequence (P27487 whole entry): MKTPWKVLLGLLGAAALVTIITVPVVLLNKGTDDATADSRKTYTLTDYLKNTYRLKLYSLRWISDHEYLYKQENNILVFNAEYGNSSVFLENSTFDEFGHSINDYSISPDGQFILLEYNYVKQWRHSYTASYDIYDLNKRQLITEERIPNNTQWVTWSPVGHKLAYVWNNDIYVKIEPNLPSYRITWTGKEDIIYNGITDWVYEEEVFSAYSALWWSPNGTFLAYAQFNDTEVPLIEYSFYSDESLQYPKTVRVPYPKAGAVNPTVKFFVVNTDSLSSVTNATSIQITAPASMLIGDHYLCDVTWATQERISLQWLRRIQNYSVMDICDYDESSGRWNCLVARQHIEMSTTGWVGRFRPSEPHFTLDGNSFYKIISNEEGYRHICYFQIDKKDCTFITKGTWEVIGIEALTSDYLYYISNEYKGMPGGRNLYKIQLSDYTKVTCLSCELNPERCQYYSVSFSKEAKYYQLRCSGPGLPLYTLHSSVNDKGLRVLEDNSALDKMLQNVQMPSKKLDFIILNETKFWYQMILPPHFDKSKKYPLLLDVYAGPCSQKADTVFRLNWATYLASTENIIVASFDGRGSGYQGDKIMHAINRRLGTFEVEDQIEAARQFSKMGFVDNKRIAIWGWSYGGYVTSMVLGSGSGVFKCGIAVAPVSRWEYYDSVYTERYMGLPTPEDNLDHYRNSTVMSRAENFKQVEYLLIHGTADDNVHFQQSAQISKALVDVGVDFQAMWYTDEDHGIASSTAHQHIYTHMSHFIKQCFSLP

Structure (SMILES)	IC50 [3] [µM]	further results
C[C@H](N)C(=S)N1CCSC1		Ki [1]: 277 nM; Ki [2]: 7.88 µM
S=C(C1CCCN1)N1CCCC1 (configuration not stated)	> 500	
NCCCC(N)C(=O)N1CCCCC1 (configuration not stated)	> 500	SI [4]: > 1110
C[C@H](N)C(=O)N1CCC[C@H]1C#N		IC50 [5]: 110 µM
C[C@H](N)C(=S)N1CCCC1		Ki [1]: 1430 nM; Ki [2]: 47.6 µM
NC(Cc1c[nH]cn1)C(=O)N1CCCCC1 (configuration not stated)	213	
N[C@@H](CC1CCCCC1)C(=O)N1CCCCC1	217	
NC[C@H](N)C(=O)N1CCCCC1	> 1000	
NCC(=O)N1CCCC1	> 1000	
NCCCCC(N)C(=O)N1CCCCC1 (configuration not stated)	247	SI [4]: 154
NCC[C@H](N)C(=O)N1CCCCC1	> 1000	SI [4]: > 7590

Further lines, with some results ahead:

IC50 [3] [µM]	Structure (SMILES)	further results
135	NCCCCC(NC(=O)OCc1ccccc1)C(=O)N1CCCCC1 (configuration not stated)	SI [4]: 64
67	CCC(C)C(N)C(=O)N1CCCCC1 (configuration not stated)	
122	N[C@@H](CC(=O)O)C(=O)N1CCCC1	
39	NCCCCC(N)C(=O)N1CCCC1 (configuration not stated)	
14	NC(Cc1ccc(O)cc1)C(=O)N1CCCC1 (configuration not stated)	
188	NC(=O)CC(N)C(=O)N1CCCC1 (configuration not stated)	
21	NC(Cc1ccccc1)C(=O)N1CCCC1 (configuration not stated)	
41	C[C@H](N)C(=O)N1CCCC1	
23.2	NC(Cc1c[nH]cn1)C(=O)N1CCCC1 (configuration not stated)	
190	NC(CO)C(=O)N1CCCC1 (configuration not stated)	
